Experimental data reported in US20210261964A1, “LIPID PARTICLE CONTAINING A-TYPE CpG OLIGODEOXYNUCLEOTIDE” (THE RESEARCH FOUNDATION FOR MICROBIAL DISEASES OF OSAKA …, priority 2018, published 2021).

Tests used:
[1] = tested on: Bone marrow cells from WT, TLR7KO, and TLR9KO mice; test: TLR9 dependency: IFN-I production in bone marrow cells, B16-Blue sensor cell bioassay; type: cell-based, mouse; conditions: R848 1 ug/mL; 24 hours
From the text: (§1) The content of each lipid per 100 mass % of lipids constituting the lipid particles is as follows: DOTAP: 50 mass %, DPPC: 19.5 mass %, cholesterol: 30 mass %, and DSPE-PEG (2 k (PEG chain length))-OMe: 0.5 mass % or 3.0 mass %. The ratio (N/P) of the number of nitrogen atoms (N) in the lipids constituting the lipid particles to the number of phosphorus atoms (D35) (P) in the nucleic acid was set to 3. A D35-containing aqueous solution and a lipid-containing ethanol solution were mixed using the NanoAssemblr (produced by Precision NanoSystems) to obtain lipid nanoparticles, which were then dialyzed against a 5% glucose aqueous solution. In this Test Example and the following Test Examples, the D35-containing lipid nanoparticles obtained here were used.
(§2) Bone marrow cells were prepared from each of WT, TLR7KO, and TLR9KO mice, and stimulated with R848 (TLR7/8 agonist; medium final concentration: 1 ug/mL), D35 (TLR9 agonist; medium final concentration: 10 uM=63.4 ug/mL), and D35-containing lipid nanoparticles (medium final concentration in terms of D35: 1 μg/mL), followed by culturing for 24 hours. Then, the amounts of IFN-I and IL-6 in the culture supernatant were quantified by a biological activity measurement method using murine type I IFNs sensor cells (B16-Blue IFN-α/a cells) and by the usual ELISA method, respectively.

[2] = tested on: Bone marrow cells from WT, TLR7KO, and TLR9KO mice; test: TLR9 dependency: IL-6 production in bone marrow cells, ELISA; type: cell-based, mouse; conditions: R848 1 ug/mL, D35 10 uM=63.4 ug/mL, nanoparticles 1 μg/mL in terms of D35, 24 hours; for IL-6 production in TLR7KO: TLR7KO bone marrow cells; for IL-6 production in TLR9KO: TLR9KO bone marrow cells
From the text: as §1, §2

[3] = tested on: MC38 mouse colorectal cancer-derived tumor; test: MC38 mouse colorectal cancer-derived tumor model, tumor size; type: in vivo; conditions: Test Example 6, FIG. 6: intratumoral, days 9, 11, 13, 15, 17; 4.5 ug/shot D35; effect on days 17 and 21
Description: On days 9, 11, 13, 15, and 17 after subcutaneous transplantation of MC38 (1×10^6 cells), a pharmaceutical agent (D35 or D35-containing lipid nanoparticles (DSPE-PEG-OMe content: 0.5 mass %)) was intratumorally administered 5 times in total. Then, the tumor size was measured. The amount of D35 nucleic acid administered at one time was adjusted to 4.5 ug/shot.
On days 9, 11, 13, 15, and 17 after subcutaneous transplantation of MC38 (1×10^6 cells), D35-containing lipid nanoparticles (DSPE-PEG-OMe content: 0.5 mass %) were intratumorally administered 5 times in total. Then, the tumor size was measured. Further, in order to deplete CD8T cells, anti-CD8a antibody (100 ug/shot) or control antibody (100 ug/shot) was intraperitoneally administered on days 6 and 13 after subcutaneous transplantation. The amount of D35 nucleic acid administered at one time was adjusted to 4.5 ug/shot.
On days 9, 11, 13, 15, and 17 after subcutaneous transplantation of MC38 (1×10^6 cells), a pharmaceutical agent (D35 or D35-containing lipid nanoparticles (DSPE-PEG-OMe content: 0.5 mass %)) was administered intravenously 5 times in total. Then, the tumor size was measured. […]
On days 9, 11, 13, 15, and 17 after subcutaneous transplantation of MC38 (1×10^6 cells), D35-containing lipid nanoparticles (DSPE-PEG-OMe content: 0.5 mass %) were administered intravenously 5 times in total. Then, the tumor size was measured. […]

Row | Compound | IFN-I production [1] | IL-6 production in TLR7KO [2] | IL-6 production in TLR9KO [2] | tumor size [3]
1 | CCOCc1nc2c(N)nc3ccccc3c2n1CC(C)(C)O [R848] | very weak | disappeared | did not disappear | 
2 | G_G_TGCATCGATGCAGGGG_G_G (DNA GGTGCATCGATGCAGGGGGG; DNA, linkages s2 o15 s2 (s phosphorothioate, o phosphodiester), methylation of C not given here; formulated in lipid nanoparticles) [D35, A-type CpG oligodeoxynucleotide, TLR9 agonist, not complexed with lipids] |  | did not disappear | disappeared almost completely | No effect was observed
